Values joined by “and” are separate entries in the source; they are usually repeats but may differ in a detail not shown here. Equal entries are not always repeated. “Also recorded” adds a separate entry of the source. Where two headings read alike, the source gives them in different places.
Legend:
S. mansoni schistosomula = S. mansoni schistosomula high-throughput phenotype and motility screen (Roboworm), 72 h; format: cell-based, Schistosoma mansoni; conditions: for EC50: Schistosoma mansoni
Summary of the method: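 Newly transformed schistosomula (S. mansoni PR-1, mechanically transformed cercariae), 120 per well, exposed to compounds at a single concentration or two-fold titrations for 72 h at 37 °C, 5% CO2.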

[1] = test system: Adult S. haematobium worms; assay: In vitro screening of S. haematobium adults at 100 nM (WormAssay motility, descriptors, severity score); format: cell-based, Schistosoma haematobium; conditions: for Effect on S. haematobium adult worms: 5, 24, 48 and 72 h; for SEVERITY SCORES 5 h / SEVERITY SCORES 24 h / SEVERITY SCORES 48 h / SEVERITY SCORES 72 h: max = 4, one line per replicate
Protocol: (§1) For each species, parasite recovery involved reverse perfusion of the hepatic portal and mesenteric system using DMEM (Fisher Scientific). Parasites were washed six times with Basch 169 medium supplemented with 100 U/ml penicillin and 100 μg/ml streptomycin before manually distributing approximately 5 males per well (on occasion 1 or 2 females might also be present) of a 24-well plate (Corning Costar 3524). […] The next morning, a final concentration of 100 nM compound (in 1 μL DMSO) was added to each well and the final volume made up to 2 ml with Basch 169 medium supplemented with antibiotics and FBS. Each compound was tested in triplicate (except for some instances tested in duplicate). […] The phenotypic characterisation of compound effects focused on male worms due to the greater range of their motility characteristics that include flexing, bending, stretching, sucker walking and adherence, compared to the more sedentary female worms. In addition to descriptors, WormAssay, as adapted for the schistosome, was used to measure average worm motility per well [72, 73].

TK6 cells = assay: Genotoxicity assessment in TK6 cells (micronucleus, ɣH2AX, p53, cell cycle)
Protocol: The in vitro micronucleus (MN) assay was employed for the assessment of chromosome damage. Human, p53 competent, lymphoblastoid TK6 cells (Cat. No. 95111735) were used in this study and obtained from the European Collection of Authenticated Cell Cultures (ECACC)). RPMI 1640 (Gibco, Paisley, UK) culture media supplemented with 1% penicillin/streptomycin (100 U/ml Penicillin and 100 μg/ml Streptomycin), 10% heat inactivated horse serum (Gibco, Paisley, UK), 1% L-glutamine (Gibco, Paisley, UK) and hygromycine-B was used for TK6 cell culture. Cells were incubated at 37 °C in a humidified atmosphere of 5% (v/v) CO2.

[2] = test system: adult S. japonicum male worms; assay: In vitro screening of S. japonicum adults at 100 nM (WormAssay motility, descriptors, severity score); format: cell-based, Schistosoma japonicum; set-up: key to DESCRIPTORS 48 h / DESCRIPTORS 72 h: Dark = dark; S = Slow; S-uncoord = uncoordinated slow movements; O-uncoord = uncoordinated fast movements; On sides = male worms are not adhering to dish with ventral sucker; Shrunk = worms are not flexing and are smaller than usual; Teg damage = outer surface (tegument of the worm) is damaged; Deg= degenerating; D = Dead; conditions: for Effect on S. japonicum adult male worms: 5, 24, 48 and 72 h; for SEVERITY SCORES 5 h / SEVERITY SCORES 24 h / SEVERITY SCORES 48 h / SEVERITY SCORES 72 h: max = 4, one line per replicate
Protocol: as §1

S. mansoni miracidia = S. mansoni miracidia to sporocyst transformation screen, 48 h; format: cell-based, Schistosoma mansoni
Text: Following hepatic portal vein perfusion of TO mice, experimentally infected 7 weeks previously, the mouse livers were collected to isolate parasite eggs. Briefly, the infected tissues were homogenised in double saline solution (1.7% w/v NaCl) using a Waring blender. The homogenates were passed through a 0.45 μm filter to retain egg material and the resulting filtered solution was collected in a volumetric flask. Miracidia hatching was induced by exposure of eggs to light in artificial river water (e.g. Lepple water). The resulting miracidial suspension was collected, washed with Chernin's balanced salt solution (CBSS) and enumerated prior to being used for in vitro miracidia to sporocyst screens, as previously described. […] Each treatment was set up in duplicate and parasites cultured in CBSS with 1% DMSO were set up as negative controls. After 48 h incubation at 26 °C, dead, fully transformed and partially transformed miracidia were enumerated as previously described [[18],[64], [65], [66]].

S. mansoni adult worms = assay: S. mansoni adult worm motility screen (WormassayGP2), 72 h; format: cell-based, Schistosoma mansoni; conditions: for EC50: Schistosoma mansoni
Summary of the method: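 Seven-week adult S. mansoni worms, perfused from infected mice, were exposed in duplicate (1–3 pairs/well) to […] compound in 0.5% DMSO for 72 h at 37 °C, 5% CO2. Motility was scored by image-based WormassayGP2, and eggs were counted afterwards.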

[3] = 72 h, Table 2, average of phenotype and motility EC50, 72 h, read-out: Activity on schistosomula (EC50, μM - 72 h) Average
[4] = 72 h, Table 2, motility, 72 h, three replicate titrations (0.313–10 μM), read-out: Activity on schistosomula (EC50, μM - 72 h) M
[5] = 72 h, Table 2, phenotype, 72 h, three replicate titrations (0.313–10 μM), read-out: Activity on schistosomula (EC50, μM - 72 h) P
[6] = Table 4, Series A, read-out: Anti-schistosomal activity EC50 Schistosomula (μM) Motility
[7] = Table 4, Series A, read-out: Anti-schistosomal activity EC50 Schistosomula (μM) Phenotype
[8] = S. japonicum, one line per replicate
[9] = Table 4, Series A, read-out: Anti-schistosomal activity EC50 Adult (nM) Motility
[10] = Table 2, 72 h, titrations 0.0095–5 μM, WormassayGP2, read-out: Activity on adult worms (EC50, μM - 72 h) Motility

## O=[N+]([O-])c1ccc2nc(Nc3ccc(Cl)c(Cl)c3)c(Nc3ccc(Cl)c(Cl)c3)nc2c1 [Compound 22, N^2, N^3-bis(3,4-dichlorophenyl)-6-nitroquinoxaline-2,3-diamine]
S. mansoni schistosomula; 10 μM, 72 h
  Activity on schistosomula in the primary screen at 10 μM: retained activity
S. mansoni schistosomula; 72 h, Table 1, 72 h, two dose response titrations (0.313–10 μM), 95% CI in brackets, read-out: Activity on schistosomula (EC50, μM - 72 h) Motility
  EC50: 0.38 µM
S. mansoni schistosomula; 72 h, Table 1, 72 h, two dose response titrations (0.313–10 μM), 95% CI in brackets, read-out: Activity on schistosomula (EC50, μM - 72 h) Phenotype
  EC50: 0.4 µM
S. mansoni schistosomula; 72 h, Table 1, mean of phenotype and motility EC50, 72 h, read-out: Activity on schistosomula (EC50, μM - 72 h) Average
  EC50: 0.39 µM
S. mansoni schistosomula; [3]
  EC50: 0.44 µM
S. mansoni schistosomula; [4]
  EC50: 0.42 µM
S. mansoni schistosomula; [5]
  EC50: 0.47 µM
S. mansoni schistosomula; Table 3, read-out: Anti-schistosomal activity EC50 (μM) Schistosomula Motility
  EC50: 0.42 µM
S. mansoni schistosomula; Table 3, read-out: Anti-schistosomal activity EC50 (μM) Schistosomula Phenotype
  EC50: 0.47 µM
S. mansoni schistosomula; [6]
  EC50: 0.42 µM
S. mansoni schistosomula; [7]
  EC50: 0.47 µM
S. mansoni schistosomula; Table 5, Series C, read-out: Anti-schistosomal activity EC50 Schistosomula (μM) Motility
  EC50: 0.42 µM
S. mansoni schistosomula; Table 5, Series C, read-out: Anti-schistosomal activity EC50 Schistosomula (μM) Phenotype
  EC50: 0.47 µM
S. mansoni schistosomula; commercially sourced batch (c22), Fig. S7, read-out: EC50 on schistosomula, original commercially sourced compound
  EC50: 0.61 µM
S. mansoni schistosomula; re-synthesised batch (rs22), Fig. S7, read-out: EC50 on schistosomula, re-synthesised compound
  EC50: 0.51 µM
[1]
  Effect on S. haematobium adult worms: mainly inactive
[1]; S. haematobium
  SEVERITY SCORES 5 h: 0
[1]; S. haematobium, 24 h
  SEVERITY SCORES 24 h: 0
[1]; S. haematobium, 48 h
  SEVERITY SCORES 48 h: 0
[1]; S. haematobium, 72 h
  SEVERITY SCORES 72 h: 0
TK6 cells
  Number of micronuclei (MNi) compared to DMSO treated cells: did not change significantly
TK6 cells; 2 and 4 μM
  Cell-cycle analysis: G2/M phase arrest
TK6 cells; TK6 cells, 0.5, 2 and 4 μM
  Genotoxicity: non-genotoxic; also recorded: does not induce genotoxicity
[2]
  Effect on S. japonicum adult male worms: decreased motility starting at 48 h
[2]; S. japonicum
  SEVERITY SCORES 5 h: 0
  SEVERITY SCORES 48 h: 1 and 2
  SEVERITY SCORES 72 h: 2
[2]; S. japonicum, 24 h
  SEVERITY SCORES 24 h: 0
[2]; [8]
  DESCRIPTORS 48 h: S and S, on sides
  DESCRIPTORS 72 h: S+, on sides
S. mansoni miracidia; 5 μM in 1% DMSO
  Effect on miracidia at 5 μM: not lethal
S. mansoni miracidia; 5 μM, 48 h
  Reduction of miracidia to sporocyst transformation at 5 μM compared to DMSO: 50%
S. mansoni miracidia; 2 and 0.5 μM, 48 h
  Miracidial transformation inhibition at 2 and 0.5 μM: about 20%
S. mansoni miracidia; 10 and 50 μM, 48 h
  Effect on miracidia at 10 and 50 μM: lethal
S. mansoni adult worms; 3.15 μM, lowest concentration tested
  Effect on adult worm motility at 3.15 μM: complete cessation of worm mobility; also recorded: completely inhibited
S. mansoni adult worms; 12.5 and 6.25 μM
  Effect on adult worm motility at 12.5 and 6.25 μM: particularly active
S. mansoni adult worms; Table 3, read-out: Anti-schistosomal activity EC50 (μM) Adult Motility
  EC50: 0.085 µM
S. mansoni adult worms; [9]
  EC50: 0.0847 µM
S. mansoni adult worms; [10]
  EC50: 0.0847 µM
S. mansoni adult worms; commercially sourced batch (c22), Fig. S7, read-out: EC50 on adult worms, original commercially sourced compound
  EC50: 0.0685 µM
S. mansoni adult worms; re-synthesised batch (rs22), Fig. S7, read-out: EC50 on adult worms, re-synthesised compound
  EC50: 0.0731 µM

## O=[N+]([O-])c1ccc2nc(Nc3cc(C(F)(F)F)ccc3F)c(Nc3cc(C(F)(F)F)ccc3F)nc2c1 [Compound 33, N2, N3-bis(2-fluoro-5-(trifluoromethyl)phenyl)-6-nitroquinoxaline-2,3-diamine]
S. mansoni schistosomula; [3]
  EC50: 0.15 µM
S. mansoni schistosomula; [4]
  EC50: 0.15 µM
S. mansoni schistosomula; [5]
  EC50: 0.15 µM
S. mansoni schistosomula; 72 h, Table S7, motility, 95% CI in brackets, read-out: Activity on schistosomula (EC50, µM - 72 h) (95% CI) M
  EC50: 0.15 µM
S. mansoni schistosomula; 72 h, Table S7, phenotype, 95% CI in brackets, read-out: Activity on schistosomula (EC50, µM - 72 h) (95% CI) P
  EC50: 0.15 µM
S. mansoni schistosomula; [6]
  EC50: 0.15 µM
S. mansoni schistosomula; [7]
  EC50: 0.15 µM
[1]
  Onset time on S. haematobium: ≤ 24 h
  Effect on S. haematobium adult worms: best activity
[1]; S. haematobium
  SEVERITY SCORES 5 h: 0
[1]; S. haematobium, 24 h
  SEVERITY SCORES 24 h: 2
[1]; S. haematobium, 24 h, one line per replicate
  DESCRIPTORS 24 h: S, on sides; also recorded: S, onsides
[1]; S. haematobium, 48 h
  SEVERITY SCORES 48 h: 3
[1]; S. haematobium, 48 h, one line per replicate
  DESCRIPTORS 48 h: S, dark on sides
[1]; S. haematobium, 72 h
  SEVERITY SCORES 72 h: 4
[1]; S. haematobium, 72 h, one line per replicate
  DESCRIPTORS 72 h: S, deg, on sides
[2]
  Onset time on S. japonicum: ≤ 24 h
  Effect on S. japonicum adult male worms: essentially lethal
[2]; S. japonicum
  SEVERITY SCORES 5 h: 0
  SEVERITY SCORES 48 h: 4
  SEVERITY SCORES 72 h: 4
[2]; S. japonicum, 24 h
  SEVERITY SCORES 24 h: 0
[2]; S. japonicum, 24 h, one line per replicate
  DESCRIPTORS 24 h: Dark, S, on sides
[2]; [8]
  DESCRIPTORS 48 h: Dying, deg
  DESCRIPTORS 72 h: Dying, D
S. mansoni miracidia; 0.5 μM, lowest concentration tested
  Effect on miracidia at 0.5 μM: parasite death
S. mansoni adult worms; [9]
  EC50: 0.0056 µM
S. mansoni adult worms; [10]
  EC50: 0.0056 µM

Reference: publication PMC8626775, “Anti-schistosomal activities of quinoxaline-containing compounds: From hit identification to lead optimisation” (European Journal of Medicinal Chemistry, 2021)
